Measured values as given in article PMC8343220, “The selectivity of α‐adrenoceptor agonists for the human α1A, α1B, and α1D‐adrenoceptors” (Pharmacology Research & Perspectives, 2021).

Key:
[1] = tested on: parental CHO cell line without any transfected receptors; experiment: Intracellular calcium mobilization, parent CHO cells without transfected receptors; type: cell-based, Chinese hamster; settings: Cricetulus griseus; CHO cells without transfected receptors; response at maximum concentration used (c2), as % of ionomycin (10μM) response; mean ± s.e.m.; read-out: Intracellular calcium release % ionomycin
human α1A‐adrenoceptor = molecular target: T1, human α1A‐adrenoceptor (Homo sapiens, UniProt P35348); experiment: ERK1/2‐phosphorylation (Surefire Alphascreen), CHO‐α1A cells; type: cell-based; settings: CHO‐α1A cells, ^a bi‐phasic: initial stimulatory part; for EC50: 2–4 min, ^b also active in parent CHO cells, read-out: ERK1/2‐phosphorylation Log EC50 (converted); for ERK1/2‐phosphorylation % PDBu: % of 10 µM PDBu
T1 construct: expressed in transfected cells; host or cells: CHO-K1
T1 sequence (P35348 1-466): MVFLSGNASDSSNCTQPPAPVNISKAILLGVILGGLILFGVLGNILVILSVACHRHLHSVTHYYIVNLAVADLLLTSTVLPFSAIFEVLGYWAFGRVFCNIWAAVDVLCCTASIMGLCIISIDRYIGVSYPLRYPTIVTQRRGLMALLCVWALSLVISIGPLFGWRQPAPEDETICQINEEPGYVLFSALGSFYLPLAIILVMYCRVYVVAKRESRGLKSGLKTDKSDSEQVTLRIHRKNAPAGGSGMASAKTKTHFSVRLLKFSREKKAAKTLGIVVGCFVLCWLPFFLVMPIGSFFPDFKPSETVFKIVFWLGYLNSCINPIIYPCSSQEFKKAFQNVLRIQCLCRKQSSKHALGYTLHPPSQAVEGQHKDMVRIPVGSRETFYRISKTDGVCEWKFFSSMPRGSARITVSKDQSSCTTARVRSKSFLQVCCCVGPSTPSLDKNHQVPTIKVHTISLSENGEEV

[2] = molecular target: T2, human α1D‐adrenoceptor (full length) (Homo sapiens, UniProt P25100); experiment: ERK1/2‐phosphorylation (Surefire Alphascreen), CHO‐α1D cells; type: cell-based; settings: CHO‐α1D cells; for EC50: read-out: ERK1/2‐phosphorylation Log EC50 (converted); for ERK1/2‐phosphorylation % PDBu: maximal response as % of PDBu
T2 construct: human α1D‐adrenoceptor (full length) were used; expressed in transfected cells; host or cells: CHO-K1
T2 sequence (P25100 1-572): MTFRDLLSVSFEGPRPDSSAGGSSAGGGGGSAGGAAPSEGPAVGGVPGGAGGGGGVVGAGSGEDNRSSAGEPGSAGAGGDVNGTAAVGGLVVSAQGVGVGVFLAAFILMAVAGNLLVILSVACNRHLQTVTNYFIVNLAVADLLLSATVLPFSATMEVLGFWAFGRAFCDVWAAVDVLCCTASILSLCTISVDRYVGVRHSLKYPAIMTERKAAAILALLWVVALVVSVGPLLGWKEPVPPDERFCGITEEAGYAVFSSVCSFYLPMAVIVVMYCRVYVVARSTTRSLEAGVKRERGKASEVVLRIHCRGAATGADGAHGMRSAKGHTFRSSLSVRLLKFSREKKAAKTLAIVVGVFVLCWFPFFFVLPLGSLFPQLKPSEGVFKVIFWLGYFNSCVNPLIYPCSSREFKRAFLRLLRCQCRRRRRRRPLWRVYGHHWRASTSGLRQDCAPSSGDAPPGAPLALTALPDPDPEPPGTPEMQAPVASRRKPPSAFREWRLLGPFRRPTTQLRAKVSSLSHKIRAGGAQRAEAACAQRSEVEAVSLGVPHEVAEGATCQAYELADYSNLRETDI

human α1B‐adrenoceptor [3] = molecular target: T3, human α1B‐adrenoceptor (Homo sapiens, UniProt P35368); experiment: ^3H‐cAMP accumulation, CHO‐α1B cells; type: cell-based; settings: CHO‐α1B cells; for cAMP accumulation % forskolin: % forskolin maximum response; for EC50: read-out: cAMP accumulation Log EC50 (converted); for cAMP accumulation % forskolin at 100 µM: response at 100 µM ligand (no EC50 given)
T3 construct: expressed in transfected cells; host or cells: CHO-K1
T3 sequence (P35368 1-520): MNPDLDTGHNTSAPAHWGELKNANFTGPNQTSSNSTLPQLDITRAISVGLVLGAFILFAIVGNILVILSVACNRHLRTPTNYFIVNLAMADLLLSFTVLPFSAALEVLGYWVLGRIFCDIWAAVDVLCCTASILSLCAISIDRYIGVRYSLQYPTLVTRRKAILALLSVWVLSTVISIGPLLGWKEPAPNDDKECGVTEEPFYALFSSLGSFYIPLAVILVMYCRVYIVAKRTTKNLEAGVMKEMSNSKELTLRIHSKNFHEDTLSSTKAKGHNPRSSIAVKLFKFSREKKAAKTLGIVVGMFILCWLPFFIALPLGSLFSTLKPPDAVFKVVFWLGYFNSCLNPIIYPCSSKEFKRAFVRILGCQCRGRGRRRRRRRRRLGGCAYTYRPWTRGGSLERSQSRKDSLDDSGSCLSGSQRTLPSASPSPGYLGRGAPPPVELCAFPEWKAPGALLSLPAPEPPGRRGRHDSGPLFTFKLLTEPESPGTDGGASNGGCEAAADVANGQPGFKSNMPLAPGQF

human α1B‐adrenoceptor [4] = molecular target: T3, human α1B‐adrenoceptor; experiment: ^3H‐cAMP accumulation in the presence of 10 μM forskolin, CHO‐α1B cells; type: cell-based; settings: CHO‐α1B cells; for cAMP accumulation (in presence of forskolin) Fold increase: fold increase of the forskolin response; for EC50: in presence of forskolin, read-out: cAMP accumulation (in presence of forskolin) Log EC50 (converted)

Question: With `c1ccc(C2CC2)c(OCC2=NCCN2)c1` [Cirazoline] as the compound, how does the Emax [1] read?
Answer: 4.5 ± 0.8%

Question: What about the EC50 (human α1A‐adrenoceptor) of the same compound?
Answer: 0.955 nM

Question: What about the “ERK1/2‐phosphorylation % PDBu” value (human α1A‐adrenoceptor) of the same compound?
Answer: 80.8 ± 3.6%

Question: And the EC50 ([2]; log values given negative)?
Answer: 3.8 µM

Question: And the “ERK1/2‐phosphorylation % PDBu” value [2]?
Answer: 36.5 ± 3.2%

Question: What about the “cAMP accumulation % forskolin” value (human α1B‐adrenoceptor [3]) of the same compound?
Answer: 11.4 ± 2.4%

Question: What about the EC50 (human α1B‐adrenoceptor [3]) of the same compound?
Answer: 120 nM

Question: And the “cAMP accumulation (in presence of forskolin) Fold increase” value (human α1B‐adrenoceptor [4])?
Answer: 2.09 ± 0.13 fold

Question: And the EC50 (human α1B‐adrenoceptor [4])?
Answer: 39.8 nM

Question: Which results are given for `C[C@H](N)[C@H](O)c1cccc(O)c1` [Metaraminol]?
Answer: EC50 (human α1A‐adrenoceptor): 97.7 nM; ERK1/2‐phosphorylation % PDBu (human α1A‐adrenoceptor): 83.9 ± 4.1%; EC50 ([2]; log values given negative): 2.69 µM; ERK1/2‐phosphorylation % PDBu [2]: 20.5 ± 3.0%; cAMP accumulation % forskolin at 100 µM (human α1B‐adrenoceptor [3]): 42.0 ± 5.1%; cAMP accumulation (in presence of forskolin) Fold increase (human α1B‐adrenoceptor [4]): 2.58 ± 0.07 fold; EC50 (human α1B‐adrenoceptor [4]): 1480 nM

Question: Which EC50 (human α1A‐adrenoceptor) does the source give for `COc1ccc(OC)c(C(O)C(C)N)c1` (stereo not drawn) [Methoxamine] here?
Answer: 27.5 nM

Question: And the “ERK1/2‐phosphorylation % PDBu” value (human α1A‐adrenoceptor)?
Answer: 81.4 ± 4.5%

Question: And the EC50 ([2]; log values given negative)?
Answer: 8.32 µM

Question: What about the “ERK1/2‐phosphorylation % PDBu” value [2] of the same compound?
Answer: 14.2 ± 3.9%

Question: And the “cAMP accumulation % forskolin at 100 µM” value (human α1B‐adrenoceptor [3])?
Answer: 24.2 ± 4.6%

Question: And the “cAMP accumulation (in presence of forskolin) Fold increase” value (human α1B‐adrenoceptor [4])?
Answer: 2.42 ± 0.05 fold

Question: What about the EC50 (human α1B‐adrenoceptor [4]) of the same compound?
Answer: 6920 nM

Question: Which EC50 (human α1A‐adrenoceptor) does the source give for `Clc1ccc2nsnc2c1NC1=NCCN1` [Tizanidine] here?
Answer: 37.2 nM

Question: What about the “ERK1/2‐phosphorylation % PDBu” value (human α1A‐adrenoceptor) of the same compound?
Answer: 82.1 ± 3.9%

Question: And the “ERK1/2‐phosphorylation Log EC50” value ([2]; log values given negative)?
Answer: No response

Question: What about the “ERK1/2‐phosphorylation % PDBu” value [2] of the same compound?
Answer: No response

Question: What about the “cAMP accumulation % forskolin” value (human α1B‐adrenoceptor [3]) of the same compound?
Answer: 10.7 ± 1.5%

Question: What about the EC50 (human α1B‐adrenoceptor [3]) of the same compound?
Answer: 708 nM

Question: What about the “cAMP accumulation (in presence of forskolin) Fold increase” value (human α1B‐adrenoceptor [4]) of the same compound?
Answer: 2.01 ± 0.11 fold

Question: What about the EC50 (human α1B‐adrenoceptor [4]) of the same compound?
Answer: 182 nM

Question: What does the source list for `N=C(N)NC(=O)Cc1c(Cl)cccc1Cl` [Guanfacine]?
Answer: Emax [1]: 11.5 ± 2.9%; EC50 (human α1A‐adrenoceptor): 34.7 nM; ERK1/2‐phosphorylation % PDBu (human α1A‐adrenoceptor): 87.4 ± 2.3%; EC50 ([2]; log values given negative): 6.92 µM; ERK1/2‐phosphorylation % PDBu [2]: 16.1 ± 4.0%; cAMP accumulation % forskolin (human α1B‐adrenoceptor [3]): 39.0 ± 5.8%; EC50 (human α1B‐adrenoceptor [3]): 1620 nM; cAMP accumulation (in presence of forskolin) Fold increase (human α1B‐adrenoceptor [4]): 2.67 ± 0.18 fold; EC50 (human α1B‐adrenoceptor [4]): 324 nM

Question: Which results are given for `CC(CCc1ccc(O)cc1)NCCc1ccc(O)c(O)c1` (stereo not drawn) [Dobutamine]?
Answer: EC50 (human α1A‐adrenoceptor): 43.7 nM; ERK1/2‐phosphorylation % PDBu (human α1A‐adrenoceptor): 85.5 ± 4.3%; EC50 ([2]; log values given negative): 0.891 µM; ERK1/2‐phosphorylation % PDBu [2]: 26.2 ± 7.5%; cAMP accumulation Log EC50 (human α1B‐adrenoceptor [3]): No response; cAMP accumulation % forskolin (human α1B‐adrenoceptor [3]): No response; cAMP accumulation (in presence of forskolin) Fold increase (human α1B‐adrenoceptor [4]): 1.24 ± 0.04 fold; EC50 (human α1B‐adrenoceptor [4]): 2000 nM

Question: With `c1ccc2c(CC3=NCCN3)cccc2c1` [Naphazoline] as the compound, how does the EC50 (human α1A‐adrenoceptor) read?
Answer: 4.07 nM

Question: And the “ERK1/2‐phosphorylation % PDBu” value (human α1A‐adrenoceptor)?
Answer: 90.9 ± 4.4%

Question: And the EC50 ([2]; log values given negative)?
Answer: 13.8 µM

Question: What about the “ERK1/2‐phosphorylation % PDBu” value [2] of the same compound?
Answer: 33.0 ± 4.7%

Question: And the “cAMP accumulation % forskolin” value (human α1B‐adrenoceptor [3])?
Answer: 3.9 ± 0.7%

Question: And the EC50 (human α1B‐adrenoceptor [3])?
Answer: 12.9 nM

Question: What about the “cAMP accumulation (in presence of forskolin) Fold increase” value (human α1B‐adrenoceptor [4]) of the same compound?
Answer: 1.65 ± 0.07 fold

Question: What about the EC50 (human α1B‐adrenoceptor [4]) of the same compound?
Answer: 5.5 nM

Question: `CCNCC(O)c1cccc(O)c1` (stereo not drawn) [Etilefrine] was tested. Which EC50 (human α1A‐adrenoceptor) did it give?
Answer: 145 nM

Question: What about the “ERK1/2‐phosphorylation % PDBu” value (human α1A‐adrenoceptor) of the same compound?
Answer: 72.8 ± 7.0%

Question: And the EC50 ([2]; log values given negative)?
Answer: 1.51 µM

Question: And the “ERK1/2‐phosphorylation % PDBu” value [2]?
Answer: 16.8 ± 2.0%

Question: What about the “cAMP accumulation % forskolin at 100 µM” value (human α1B‐adrenoceptor [3]) of the same compound?
Answer: 73.4 ± 7.1%

Question: And the “cAMP accumulation (in presence of forskolin) Fold increase” value (human α1B‐adrenoceptor [4])?
Answer: 2.47 ± 0.09 fold

Question: And the EC50 (human α1B‐adrenoceptor [4])?
Answer: 661 nM
